# Measurements: PMC8225628, “Bispecific repurposed medicines targeting the viral and immunological arms of COVID-19” (Scientific Reports, 2021)
# Where “and” joins values, the source holds several entries; their conditions need not be identical. Identical values can stand only once. Like-named read-outs stand apart in the source and are kept apart here. *1 amine or outer side, *2 acyl side, *3 side chain or, on linkers, in order; H or OH if unused. Where a SMILES comes first, the peptide text is derived from it. Bridges are numbered along the chain shown (N, C = ends). [ ]: non-standard residue; d: D form. The star is where a group is joined. hTyr(3S-OH,4S-OH,3'-OSO3H) = N[C@H](C(=O)O)[C@H](O)[C@@H](O)c1ccc(O)c(OS(=O)(=O)O)c1; Orn(4R-OH,5R-OH) = O=C([C@H](C[C@@H](O)[C@@H](O)N[*:3])N[*:1])[*:2]; Pro(3S-OH,4S-Me) = C[C@H]1CN[C@H](C(=O)O)[C@H]1O; X1 = CCCCCOc1ccc(-c2cc(-c3ccc(C(=O)*)cc3)no2)cc1; Gln(3R-OH) = NC(=O)C[C@@H](O)[C@H](N)C(=O)O; Hyp = O=C(O)[C@@H]1C[C@@H](O)CN1
# Assays:
# [1] = target: SARS-CoV-2 PL^pro (Severe acute respiratory syndrome coronavirus 2, UniProt P0DTD1); experiment: biochemical; details: for inhibition at 10 µM: read-out: PL^pro % inhibition at 10 µM
# [2] = target: SARS-CoV-2 M^pro (Severe acute respiratory syndrome coronavirus 2, UniProt P0DTD1); experiment: biochemical; details: for inhibition at 10 µM: read-out: M^pro % inhibition at 10 µM
# [3] = system: HUH7 cells; details: 4 days
# [4] = system: SARS-CoV-2; experiment: Antiviral assay, inhibition of SARS-CoV-2 cytopathic effect in HUH7_mCherry cells; details: HUH7 cells
# [5] = target: M^pro (Severe acute respiratory syndrome coronavirus 2, UniProt P0DTD1); experiment: M^pro SPR assay; assay type: binding
# [6] = system: PL^pro; set-up: method as in PMID 32726803; details: read-out: Biochemical IC50; cited from earlier work
# [7] = set-up: method as in PMID 32726803; details: cited from earlier work
# [8] = set-up: method as in PMID 32726803; details: cited from earlier work; remark: listed apart in the source
# [9] = set-up: method as in PMID 32726803; details: read-out: FFU IC50; cited from earlier work
# [10] = ReFRAME hits, >5e-6 = not potent enough to determine an IC50, read-out: PL^pro IC50
# [11] = ReFRAME hits, >5e-6 = not potent enough to determine an IC50, read-out: M^pro IC50
# [12] = SARS-CoV-2 PL^pro, range in brackets, read-out: IC50 (µM) (range)
molecule,measurement,setting,value
O=C(O)c1cccc(C[C@@H]2COc3ccc(OCc4nc5cc(F)ccc5s4)cc3[C@@H]2O)c1 [(+)-CP-85958],PL^pro % inhibition at 10 µM,"[1]; ReFRAME hits, 10 µM",17%
same,IC50,[1]; [10],> 5 µM
same,M^pro % inhibition at 10 µM,[2]; ReFRAME hits,70%
same,IC50,[2]; [11],2 µM
COc1ccc(-c2ccc(OCc3cc(C(=O)[N-]S(=O)(=O)c4ccccc4C)oc3C)cc2)nc1.[Na+] [BGC-20-1531],PL^pro % inhibition at 10 µM,"[1]; ReFRAME hits, 10 µM",24%
same,IC50,[1]; [10],> 5 µM
same,M^pro % inhibition at 10 µM,[2]; ReFRAME hits,58%
same,IC50,[2]; [11],> 5 µM
"CC(C)(C)NC(=O)N[C@H](C(=O)N1C[C@H]2[C@@H]([C@H]1C(=O)NC(CC1CCC1)C(=O)C(N)=O)C2(C)C)C(C)(C)C (stereo partly drawn) [Boceprevir, reference compound]",inhibition at 10 µM,"[1]; ReFRAME hits, 10 µM",-2%
same,inhibition at 10 µM,[2]; ReFRAME hits,62%
O=C(NCc1ccccn1)C(=O)C(Cc1ccccc1)NC(=O)C1CCC(=O)N1Cc1ccccc1 (stereo not drawn) [Compound 1],Concentration up to which non-cytotoxic,[3]; HUH7 cells,up to 100 µM
same,Antiviral effect,[4]; at 100 µM,75%
"O=C(NC1CC1)C(=O)C(Cc1ccccc1)NC(=O)C1CCC(=O)N1Cc1ccccc1 (stereo not drawn) [Compound 2, ABT-957, reference compound]",inhibition at 10 µM,"[1]; ReFRAME hits, 10 µM",17%
same,IC50,[1]; read-out: PL^pro IC50,> 5 µM
same,IC50,[2]; [11],> 5 µM
same,IC50,[2]; read-out: IC50 against M^pro,> 100 µM
same,inhibition at 10 µM,[2]; ReFRAME hits,73%
"CCOC(=O)C[C@H](NC(=O)[C@H](C)NC(=O)[C@@H](NC(=O)OCc1ccccc1)C(C)C)C(=O)COC(=O)c1c(Cl)cccc1Cl [Compound 4, Ethyl (5S,8S,11S)-11-(2-((2,6-dichlorobenzoyl)oxy)acetyl)-5-isopropyl-8-methyl-3,6,9-trioxo-1-phenyl-2-oxa-4,7,10-triazatridecan-13-oate, reference compound]",inhibition at 10 µM,"[1]; ReFRAME hits, 10 µM",19%
same,IC50,[1]; read-out: PL^pro IC50,> 5 µM
same,Concentration up to which non-cytotoxic,[3]; human,≤ 10 µM
same,IC50,"[2]; 30 nM is the biochemical limit of the assay, read-out: IC50 against M^pro",0.03 µM
same,inhibition at 10 µM,[2]; ReFRAME hits,95%
same,Binding to M^pro in SPR (in words),[5],confirmed to bind
same,Binding to M^pro in SPR (in words),[5]; in the presence of slow off-rate inhibitor N3,no binding observed
same,Antiviral effect,"[4]; at 10 µM, dose refreshed daily",50%
"CCOC1OC(=O)CC1NC(=O)C1CCCN1C(=O)C(NC(=O)c1ccc(N)c(Cl)c1)C(C)(C)C (stereo not drawn) [Compound 7, belnecasan, reference compound]",Inhibition of M^pro (in words),[2],did not substantially inhibit
"CCOc1cc2ncc(C#N)c(Nc3ccc(F)c(Cl)c3)c2cc1NC(=O)/C=C/CN(C)C [Compound 10, Pelitinib, reference compound]",IC50,[1]; [12],> 100 µM
same,Inhibition of M^pro (in words),[2],not determined to display significant biochemical inhibition
"CN(C)C/C=C/C(=O)Nc1cc2c(Nc3ccc(F)c(Cl)c3)ncnc2cc1O[C@H]1CCOC1 [Compound 11, Afatinib, reference compound]",IC50,[1]; [12],12 µM
"COc1cc2ncnc(Nc3ccc(F)c(Cl)c3)c2cc1NC(=O)/C=C/CN1CCCCC1 [Compound 12, Dacomitinib, reference compound]",IC50,[1]; [12],4 µM
Cc1ccc(N)cc1C(=O)N[C@H](C)c1cccc2ccccc12 [GRL-0617],IC50,[6],[…]
same,Viral RNA detection potency,[7],> 50 µM
same,Cytopathic-effect potency,[8],30 µM
same,IC50,[9],> 100 µM
CCC[C@@H](NC(=O)N1C(=O)C(CC)(CC)[C@@H]1Oc1ccc(CC(=O)O)cc1)c1ccc(C)cc1 [L 680833],PL^pro % inhibition at 10 µM,"[1]; ReFRAME hits, 10 µM",11%
same,IC50,[1]; [10],> 5 µM
same,M^pro % inhibition at 10 µM,[2]; ReFRAME hits,36%
same,IC50,[2]; [11],> 5 µM
COc1ccc(/C=C/CCCCOc2ccc(C(=O)c3cccc(C(=O)O)c3)cc2CCC(=O)O)cc1 [LY 223982],PL^pro % inhibition at 10 µM,"[1]; ReFRAME hits, 10 µM",22%
same,IC50,[1]; [10],> 5 µM
same,M^pro % inhibition at 10 µM,[2]; ReFRAME hits,43%
same,IC50,[2]; [11],> 5 µM
Nc1nc(N)nc(Nc2ccc([As]3SC(C(=O)O)C(C(=O)O)S3)cc2)n1 (stereo not drawn) [MELARSONYL],PL^pro % inhibition at 10 µM,[1],11%
same,IC50,[1]; read-out: PL^pro IC50,> 5 µM
Cl.Cl.Cl.Cl.N=C(N)NCCCCC(=O)Nc1cc(C(F)(F)F)cc(NC(=O)c2cc(C(=O)Nc3cc(C(F)(F)F)cc(NC(=O)CCCCNC(=N)N)c3O[C@@H]3CCNC3)ncn2)c1O[C@@H]1CCNC1 [PMX-30063],PL^pro % inhibition at 10 µM,"[1]; ReFRAME hits, 10 µM",30%
same,IC50,[1]; [10],2 µM
same,M^pro % inhibition at 10 µM,[2]; ReFRAME hits,11%
same,IC50,[2]; [11],> 5 µM
"CN1CCCN=C1/C=C/c1cccs1 [Pyrantel pamoate, reference compound]",IC50,[1],> 5 µM
CN(C/C=C/C#CC(C)(C)C)Cc1cccc2c(F)cc(F)cc12 [SDZ-880-540],PL^pro % inhibition at 10 µM,"[1]; ReFRAME hits, 10 µM",15%
same,IC50,[1]; [10],> 5 µM
same,M^pro % inhibition at 10 µM,[2]; ReFRAME hits,-1%
same,IC50,[2]; [11],> 5 µM
CC(=O)[O][Hg][c]1cc(C(C)(C)CC(C)(C)C)ccc1O [acetomeroctol],PL^pro % inhibition at 10 µM,[1],7%
same,IC50,[1]; read-out: PL^pro IC50,> 5 µM
O=c1cc(-c2ccc(O)c(-c3c(O)cc(O)c4c(=O)cc(-c5ccc(O)cc5)oc34)c2)oc2cc(O)cc(O)c12 [amentoflavone],inhibition at 10 µM,"[1]; ReFRAME hits, 10 µM",4%
same,IC50,[1]; read-out: PL^pro IC50,> 5 µM
same,inhibition at 10 µM,[2]; ReFRAME hits,34%
O=C1OC2(c3ccccc31)c1cc(I)c(O)c(I)c1Oc1c2cc(I)c(O)c1I [erythrosine],IC50,[1],> 5 µM
same,inhibition at 10 µM,"[1]; ReFRAME hits, 10 µM",20%
same,inhibition at 10 µM,[2]; ReFRAME hits,58%
"CO[C@H]1O[C@H](COS(=O)(=O)[O-])[C@@H](O[C@@H]2O[C@@H](C(=O)[O-])[C@@H](O[C@H]3O[C@H](COS(=O)(=O)[O-])[C@@H](O[C@@H]4O[C@H](C(=O)[O-])[C@@H](O[C@H]5O[C@H](COS(=O)(=O)[O-])[C@@H](O)[C@H](O)[C@H]5NS(=O)(=O)[O-])[C@H](O)[C@H]4O)[C@H](OS(=O)(=O)[O-])[C@H]3NS(=O)(=O)[O-])[C@H](O)[C@H]2OS(=O)(=O)[O-])[C@H](O)[C@H]1NS(=O)(=O)[O-].[Na+].[Na+].[Na+].[Na+].[Na+].[Na+].[Na+].[Na+].[Na+].[Na+] [fondaparinux (sodium), reference compound]",PL^pro % inhibition at 10 µM,"[1]; ReFRAME hits, 10 µM",23%
same,IC50,[1]; [10],> 5 µM
same,M^pro % inhibition at 10 µM,[2]; ReFRAME hits,80%
same,IC50,[2]; [11],2 µM
Cc1cc(O)c2c(=O)c3c(O)cc(O)c4c5c(O)cc(O)c6c(=O)c7c(O)cc(C)c8c1c2c(c34)c(c78)c65 [hypericin],inhibition at 10 µM,"[1]; ReFRAME hits, 10 µM",12%
same,IC50,[1]; read-out: PL^pro IC50,> 5 µM
[Cl][Hg][Cl] [mercuric chloride],PL^pro % inhibition at 10 µM,"[1]; ReFRAME hits, 10 µM",16%
same,IC50,[1]; [10],> 5 µM
"CCCCCOc1ccc(-c2cc(-c3ccc(C(=O)N[C@H]4C[C@@H](O)[C@@H](O)NC(=O)[C@@H]5[C@@H](O)[C@@H](C)CN5C(=O)[C@H]([C@H](O)CC(N)=O)NC(=O)[C@H]([C@H](O)[C@@H](O)c5ccc(O)c(OS(=O)(=O)[O-])c5)NC(=O)[C@@H]5C[C@@H](O)CN5C(=O)[C@H]([C@@H](C)O)NC4=O)cc3)no2)cc1.[Na+] [micafungin Sodium, reference compound] (X1-[Orn(4R-OH,5R-OH)]T[Hyp][hTyr(3S-OH,4S-OH,3'-OSO3H)][Gln(3R-OH)][Pro(3S-OH,4S-Me)]; lactam 1-C)",PL^pro % inhibition at 10 µM,"[1]; ReFRAME hits, 10 µM",24%
same,IC50,[1]; [10],> 5 µM
O=C(N/N=C/c1ccc([N+](=O)[O-])o1)c1cc([N+](=O)[O-])cc([N+](=O)[O-])c1O [nifursol],inhibition at 10 µM,"[1]; ReFRAME hits, 10 µM",23%
same,IC50,[1]; read-out: PL^pro IC50,> 5 µM
same,inhibition at 10 µM,[2]; ReFRAME hits,43%
"CN1CCCN=C1/C=C/c1cccc(O)c1 [oxantel (pamoate), reference compound]",IC50,[1]; [10],> 5 µM
"CN1CCCN=C1/C=C/c1cccc(O)c1.O=C(O)c1cc2ccccc2c(Cc2c(O)c(C(=O)O)cc3ccccc23)c1O [oxantel (pamoate), reference compound]",PL^pro % inhibition at 10 µM,"[1]; ReFRAME hits, 10 µM",11%
Cc1cccnc1NS(=O)(=O)c1ccc(C#Cc2ccc(O)c(C(=O)O)c2)cc1 [susalimod],inhibition at 10 µM,"[1]; ReFRAME hits, 10 µM",22%
same,IC50,[1]; read-out: PL^pro IC50,> 5 µM
same,inhibition at 10 µM,[2]; ReFRAME hits,31%
same,IC50,[2]; read-out: M^pro IC50,> 5 µM
CC(=O)Oc1ccccc1C(=O)OC1OC(=O)c2ccccc21 (stereo not drawn) [talosalate],PL^pro % inhibition at 10 µM,"[1]; ReFRAME hits, 10 µM",13%
same,IC50,[1]; [10],> 5 µM
same,M^pro % inhibition at 10 µM,[2]; ReFRAME hits,80%
same,IC50,[2]; [11],4 µM
(-)-epicatechin gallate,PL^pro % inhibition at 10 µM,"[1]; ReFRAME hits, 10 µM",11%
same,IC50,[1]; [10],> 5 µM
SENNOSIDES [reference compound],PL^pro % inhibition at 10 µM,"[1]; ReFRAME hits, 10 µM",72%
same,IC50,[1]; [10],> 5 µM
same,M^pro % inhibition at 10 µM,[2]; ReFRAME hits,92%
same,IC50,[2]; [11],0.7 µM
[(-)-epicatechin],PL^pro % inhibition at 10 µM,"[1]; ReFRAME hits, 10 µM",16%
same,IC50,[1]; [10],> 5 µM
teicoplanin [reference compound],PL^pro % inhibition at 10 µM,"[1]; ReFRAME hits, 10 µM",88% and 81%
